Test results published in the supplement of paper PMC10627819.

Columns and labels:
B. subtilis 168 [1] = test: fitness (endpoint OD595 vs no drug) (fraction); higher = more growth
Procedure, shortened: (§1)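 Volumes were 30 µl per well, or 55 µl for S. pneumoniae, in 384-well plates inoculated at OD595 0.01. Media were TSB, LB Lennox or CY at 37 °C, and OD595 was read every 30 min for 14 h with first-reading background subtraction. Fitness is the ratio of optical density at stationary-phase entry to the robust mean of no-drug controls. That ratio is capped at 1.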

B. subtilis 168 [2] = test: Bliss interaction score (quartile over a dose matrix) (fitness difference); higher = more antagonism (negative = synergy)
Procedure, shortened: (§2)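 Growth was read as OD595 when cultures entered stationary phase, and each value was divided by the plate's robust no-drug mean and capped at 1. This normalised ratio is the fitness value, and fitness for each single drug came from the combination data. The Bliss score subtracts the expected fitness, taken as the product, from the observed fitness and is given as quartiles across technical, biological and donor/recipient replicates.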

S. aureus DSM 20231 = test: as above
Procedure, shortened: as §2

S. aureus Newman = test: as above
Procedure, shortened: as §2

S. pneumoniae D39V [3] = test: as above
Procedure, shortened: as §2

S. pneumoniae D39V [4] = test: fitness (endpoint OD595 vs no drug) (fraction); higher = more growth; details: main component drawn
Procedure, shortened: as §1
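For Bliss interaction score (quartile over a dose matrix) in this document: first quartile when negative (synergy) and third quartile when positive (antagonism).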

CCC[C@@H]1C[C@@H](C(=O)N[C@@H]([C@H]2O[C@H](SC)[C@H](O)[C@@H](O)[C@H]2O)[C@H](C)Cl)N(C)C1 [Clindamycin] + CO[C@@H]1[C@@H](OC(N)=O)[C@@H](O)[C@H](Oc2ccc3c(O)c(NC(=O)c4ccc(O)c(CC=C(C)C)c4)c(=O)oc3c2C)OC1(C)C [Novobiocin]
fitness, B. subtilis 168 [1], one replicate
Details | first compound 0.0039 µg/mL | first compound 0.0078 µg/mL | first compound 0.0156 µg/mL | first compound 0.0625 µg/mL | first compound 0.125 µg/mL | first compound 0.25 µg/mL
partner 0.05 µg/mL | ≥ 1 | 0.895 | 0.867 | – | – | –
partner 0.1 µg/mL | ≥ 1 | 0.889 | 0.843 | – | – | –
partner 0.125 µg/mL | – | – | – | 0.526 | 0.496 | 0.348
partner 0.2 µg/mL | ≥ 1 | 0.903 | 0.818 | – | – | –
partner 0.25 µg/mL | – | – | – | 0.411 | 0.39 | 0.318
partner 0.5 µg/mL | – | – | – | 0.353 | 0.276 | 0.0724

fitness, B. subtilis 168 [1]
Details | first compound 0.0625 µg/mL | first compound 0.125 µg/mL | first compound 0.25 µg/mL
partner 0.0125 µg/mL | 0.558 | 0.365 | 0.346
partner 0.025 µg/mL | 0.563 | 0.334 | 0.326
partner 0.05 µg/mL | 0.581 | 0.369 | 0.325

Details | Bliss interaction score
B. subtilis 168 [2] | -0.063
S. aureus DSM 20231 | 0.0437
S. aureus Newman | 0.16
S. pneumoniae D39V [3] | -0.102

COc1c(N2C[C@@H]3CCCN[C@@H]3C2)c(F)cc2c(=O)c(C(=O)O)cn(C3CC3)c12 [Moxifloxacin] + CCC(C)C1C(=O)NC(=C)C(=O)NC(C(=O)NC(CSCC(C(=O)N1)NC(=O)/C(=C/C)/NC(=O)C(C(C)CC)N)C(=O)NC2C(SCC(NC(=O)CNC(=O)C3CCCN3C2=O)C(=O)NC(CCCCN)C(=O)NC4C(SCC(NC(=O)CNC(=O)C(NC(=O)C(NC(=O)C(NC(=O)CNC4=O)C)CC(C)C)CCSC)C(=O)NC(CC(=O)N)C(=O)NC(CCSC)C(=O)NC(CCCCN)C(=O)NC5C(SCC6C(=O)NC(C(=O)NC(CSC(C(C(=O)N6)NC(=O)C(NC5=O)C)C)C(=O)NC(CO)C(=O)NC(C(C)CC)C(=O)NC(CC7=CN=CN7)C(=O)NC(C(C)C)C(=O)NC(=C)C(=O)NC(CCCCN)C(=O)O)CC8=CN=CN8)C)C)C)CC(C)C [Nisin]
fitness, B. subtilis 168 [1], main component drawn
Details | first compound 0.0312 µg/mL | first compound 0.0625 µg/mL | first compound 0.125 µg/mL
partner 0.5 µg/mL | 0.0551 | 0.0449 | 0.0446
partner 1 µg/mL | 0.0324 | 0.0306 | 0.0343
partner 2 µg/mL | 0.0208 | 0.022 | 0.0231

fitness, B. subtilis 168 [1], one replicate, main component drawn
Details | first compound 0.0312 µg/mL | first compound 0.0625 µg/mL | first compound 0.125 µg/mL | first compound 2 µg/mL | first compound 4 µg/mL | first compound 8 µg/mL
partner 0.5 µg/mL | – | – | – | 0.0297 | 0.0204 | 0.0134
partner 1 µg/mL | – | – | – | 0.0435 | 0.031 | 0.0236
partner 1.25 µg/mL | 0.0287 | 0.0387 | 0.0145 | – | – | –
partner 1.6 µg/mL | 0.0362 | 0.0251 | 0.0203 | – | – | –
partner 2 µg/mL | – | – | – | 0.0532 | 0.0341 | 0.0259
partner 2.5 µg/mL | 0.037 | 0.0186 | 0.0151 | – | – | –
partner 3.2 µg/mL | 0.0222 | 0.0273 | 0.0354 | – | – | –
partner 4 µg/mL | – | – | – | 0.0258 | 0.0254 | 0.0138
partner 5 µg/mL | 0.0373 | 0.0148 | 0.0138 | – | – | –
partner 6.4 µg/mL | 0.0438 | 0.0244 | 0.0155 | – | – | –
partner 8 µg/mL | – | – | – | 0.0213 | 0.0075 | 0.0166
partner 16 µg/mL | – | – | – | 0.008 | 0.0061 | 0.0096

fitness, S. pneumoniae D39V [4]
Details | first compound 0.0037 µg/mL | first compound 0.005 µg/mL | first compound 0.0075 µg/mL | first compound 0.01 µg/mL | first compound 0.015 µg/mL | first compound 0.02 µg/mL
partner 0.4275 µg/mL | 0.993 | – | 0.971 | – | 0.898 | –
partner 0.855 µg/mL | 0.986 | – | 0.974 | – | 0.922 | –
partner 1.71 µg/mL | 0.0722 | – | 0.0723 | – | 0.089 | –
partner 6.4 µg/mL | – | 0.0381 | – | 0.0415 | – | 0.0317

main component drawn
Details | Bliss interaction score
B. subtilis 168 [2] | 0.0196
S. aureus DSM 20231 | 0.0667
S. aureus Newman | -0.0568
S. pneumoniae D39V [3] | 0.116

COc1c(N2C[C@@H]3CCCN[C@@H]3C2)c(F)cc2c(=O)c(C(=O)O)cn(C3CC3)c12 [Moxifloxacin] + CO[C@@H]1[C@@H](OC(N)=O)[C@@H](O)[C@H](Oc2ccc3c(O)c(NC(=O)c4ccc(O)c(CC=C(C)C)c4)c(=O)oc3c2C)OC1(C)C [Novobiocin]
fitness, B. subtilis 168 [1]
Details | first compound 0.0312 µg/mL | first compound 0.0625 µg/mL | first compound 0.125 µg/mL | first compound 2 µg/mL | first compound 4 µg/mL | first compound 8 µg/mL
partner 0.0125 µg/mL | – | – | – | 0.0294 | 0.0275 | 0.0124
partner 0.025 µg/mL | – | – | – | 0.016 | 0.0146 | 0.0125
partner 0.05 µg/mL | 0.0425 | 0.0373 | 0.0299 | 0.0168 | 0.0053 | 0.0129
partner 0.1 µg/mL | 0.0335 | 0.0227 | 0.0176 | – | – | –
partner 0.2 µg/mL | 0.0331 | 0.0211 | 0.0159 | – | – | –

fitness, B. subtilis 168 [1], one replicate
Details | first compound 0.0312 µg/mL | first compound 0.0625 µg/mL | first compound 0.125 µg/mL
partner 0.125 µg/mL | 0.0427 | 0.0166 | 0.0119
partner 0.25 µg/mL | 0.0377 | 0.0432 | 0.0101
partner 0.5 µg/mL | 0.0342 | 0.0161 | 0.011

Details | Bliss interaction score
B. subtilis 168 [2] | -0.0346
S. aureus DSM 20231 | -0.0723
S. aureus Newman | -0.113
S. pneumoniae D39V [3] | 0.0943
